The values that follow come from patent US5989846A, “Assays to identify inducers of plant defense resistance” (Rutgers, The State University of New Jersey, priority 1995, dated 1999).

One test concerns PR1 genes. The experiment in a line: PR-1 protein/gene expression in tobacco leaves (immunoblot). Type of test: in vivo. Particulars: for Induction of PR1 gene expression: tobacco leaves. The procedure: The level of PR1 protein in tobacco leaves was analyzed by immunoblot analysis to establish biological activity. Three leaf discs (1 cm in diameter) were homogenized in 200 microliters of buffer containing 50 mM Tris (pH 8.0), 1 mM EDTA, 12 mM beta-mercaptoethanol and 10 mg/ml phenylmethylsulfonyl fluoride. The homogenate was centrifuged at full speed for 10 minutes in an Eppendorf microcentrifuge. The supernatant was fractionated with 15% polyacrylamide gel under denatured conditions. Protein blotting was done with a monoclonal antibody specific to PR1 protein and protein-antibody complexes were detected with an ECL kit from Amersham.
PR gene expression is both induced by SA and associated with the development of SAR. Therefore, it was of interest to test whether SA's mechanism of action for the induction of PR genes was via its inhibition of catalases which leads to enhanced H2 O2 levels. To address this question, H2 O2 abundance was artificially raised in tobacco leaves by treating with H2 O2 or compounds which either inhibit the catalase activity, like SA itself, or promote generation of H2 O2 in vivo. […]
For orientation: A western blot detects proteins with antibodies after separation by electrophoresis.

Test [1] relates to resistance or PR gene expression. The arrangement: key: ++: indicates a high level of biological activity; +: indicates a lower level of biological activity; ±: indicates low, but detectable biological activity in some assays; -: indicates no biological activity. Particulars: Table 3; values reported in literature; cited from earlier work.
Test [2] concerns salicylic acid binding protein. The experiment in a line: Competitive [14C] salicylic acid binding assay (spin-column). The arrangement: species or system tobacco. Particulars: for Inhibition (%) 2× / Inhibition (%) 10×: [14C] salicylic acid 20 μM; for Inhibition (%) 2×: 40 μM (2×) unlabeled competitor; for Inhibition (%) 10×: 200 μM (10×) unlabeled competitor. As for the experimental part:
The 180 kDa native binding protein isolated was tested for binding affinity and specificity. A competitive assay was established using salicylic acid binding protein fractionated from plants as previously described.
A key element during the characterization and the purification process is a simple, inexpensive, sensitive and reliable method for determining the salicylic acid binding activity. For this purpose, spin-column exclusion chromatography was used to separate the bound [^14 C] salicylic acid (excluded) from the bulk free salicylic acid (included). Specifically, a 1.5 ml Eppendorf tube was punctured at the tip with a 20-gauge needle and a small amount of glass wool was added to cover the small hole. The tube was then filled with Bio-Gel P-6DG desalting gel (exclusion limit 6 KDa; purchased from Bio-Rad, Melville, N.Y.) which have been swollen in water. An alternative gel is Sephadex G-25 fine (from Pharmacia, Piscataway, N.J.). Excess liquid in the gel was removed and centrifuged for 5 minutes at full speed in a Dynamic centrifuge (Becton Dickinson). The process was then repeated several times until the gel filled the tube. After incubation of an aliquot of the extract or column fractions for 2 hr at 4° C. with 5 μM-20 μM [^14 C salicylic acid] (specifically radioactivity 55 Ci/mol; purchased from New England Nuclear), 150 μl of proteins binding sample was loaded onto the tube column, which was then rapidly centrifuged for 2 minutes at full speed and the solution of proteins and bound [^14 C-salicylic acid] that was excluded from the gel was collected into another tube that had been placed under the tube column during the centrifugation. One hundred microliters of this solution was then used to determine the amount of bound salicylic acid. […] For example, to determine the inhibitory effect of various salicylic acid analogues on salicylic acid binding activity, these individual analogues were included in the binding mixture containing both the protein and [^14 C] salicylic acid during the 2 hr incubation, and resulting binding activity was determined in comparison to the activity in the absence of these analogues. Likewise, to determine the effect of pH and antioxidants on the binding activity the protein sample was either dialyzed against a large volume of buffers with different pH or antioxidants were added to the protein sample to various concentrations and the resulting binding activities were then determined with the spin-column method in comparison with the activity determined in the absence of these treatments.

The subject of another test is catalase. The experiment in a line: In vivo catalase activity in tobacco suspension cells (oxygen electrode). Particulars: for Inhibition (%) Catalase activity: Table 8. The arrangement: Inhibition (%) Catalase activity: concentration or dose not given beside the values. Type of test: cell-based. As for the experimental part:
This was determined by adding increasing concentrations of SA or INA to tobacco suspension cells (derived from cultivar Xanthi nc), as described below. The tobacco suspension cell culture was grown in the dark in MS medium at approximately 22° C. with agitation (160 rpm). Cells were maintained by diluting 10-fold every 5 days. For experimentation, 5 ml of suspension cells obtained 3 days after dilution was transferred to a 25 ml Erlenmeyer flask and agitated (100 rpm) at room temperature in the absence or presence of SA or INA which had been adjusted to pH 5.8. After 1 hr, 1 ml of the treated cell suspension was transferred to 7 ml of fresh MS medium containing SA or INA in a 10 ml beaker (density was approximately 6 mg cells per ml). Cells were maintained in suspension with a magnetic stir bar. In vivo catalase activity was determined by measuring, with an oxygen electrode, the rate of H2 O2 -dependent O2 production immediately after addition of H2 O2 to 10 mM final concentration.

A further test has as its system SABP/catalase. The experiment in a line: Competition with 14C-labeled SA for SABP/catalase in crude leaf extracts. Type of test: binding, tobacco. Conditions: for Inhibition (%) [14C]SA binding: Table 8, 14C-labeled SA 20 μM, 1 mM unlabeled compound, crude leaf extracts.
For the next test, the system named is ascorbate peroxidase. The experiment in a line: Ascorbate peroxidase activity in tobacco leaf extracts. Type of test: biochemical, Nicotiana tabacum cv. Xanthi nc. Particulars: 200 μM compound, corrected for quenching of auto oxidation. As for the experimental part:
[…] Two grams of leaves from 6-8 week old tobacco plants (Nicotiana tabacum cv. Xanthi nc) grown at 22° C. in a 14 hr light cycle were homogenized under liquid nitrogen using a pestle and mortar.
To obtain ascorbate peroxidase-containing extracts, the soluble proteins were extracted by grinding the powder in 10 ml of 100 mM potassium phosphate, pH 7, containing […] ascorbate and 1% (weight/volume) polyvinylpyrrolidone, with a small amount of quartz sand. The homogenate was centrifuged at 14,000 g for 5 min. […] The pellet resulting from centrifugation (14,000 g, 15 min.) was resuspended in extraction buffer (100 mM potassium phosphate, pH7, containing 0.25 mM ascorbate and 1% (weight/volume) polyvinylpyrrolidone) and desalted on a PD-10 column (Pharmacia) equilibrated with 50 mM potassium phosphate, pH 7, containing 100 μM ascorbate. The extract was used immediately. […] The amount of protein per assay was 30-50 μg. Oxidation of ascorbate was followed by the decrease in the absorbance at 290 nm.
The values illustrated in FIG. 17 are the mean values for three replicated assays.

Structures are written as SMILES.

`O=C(O)CO` [glycolate]: in the test with PR1 genes, the “Induction of PR1 gene expression” value is “induced”.

Regarding `CCOc1ccccc1C(=O)O` [2-Ethoxybenzoic acid], in test [1], the Biological activity entry is listed as “-”. Moreover, in test [2], the “Inhibition (%) 2×” value is -3% and the “Inhibition (%) 10×” value turned out to be 2%.

`CCCc1cc(C(=O)O)cc(O)n1` [STR7]: the “Inhibition (%) Catalase activity” value with catalase came to 4%. The “Inhibition (%) [14C]SA binding” value in the test with SABP/catalase is given as 7%.

In the case of `O=C(O)c1ccc(Cl)cc1O` [STR9], in the test with catalase, the “Inhibition (%) Catalase activity” value came to 95%. In the test on SABP/catalase, the “Inhibition (%) [14C]SA binding” value is reported as 88%.

For `O=C(O)c1cccc(O)c1` [STR12], the “Inhibition (%) Catalase activity” value in the test with catalase amounted to 0%. For the same molecule, in the test on SABP/catalase, the “Inhibition (%) [14C]SA binding” value was determined as 1%.

For the molecule `O=C(O)c1cc(Br)nc(Br)c1` [STR2], the “Inhibition (%) Catalase activity” value in the test on catalase is 100%. The “Inhibition (%) [14C]SA binding” value in the test with SABP/catalase was 69%.

As for `O=C(O)c1cc(O)c(O)cc1O` [3,4,6-Trihydroxybenzoic acid], the Biological activity result in test [1] is listed as “-”. In test [2], the “Inhibition (%) 2×” value is reported as 1% and the “Inhibition (%) 10×” value is on record as -1%.

On to `O=C(O)c1ccccc1O` [STR8], for which the “Inhibition (%) Catalase activity” value with catalase is 84%. The “Inhibition (%) [14C]SA binding” value in the test on SABP/catalase was determined as 90%.

Take `O=C(O)c1ccc(O)cc1` [STR13]: the “Inhibition (%) Catalase activity” value with catalase was determined as 0%. For the same molecule, in the test with SABP/catalase, the “Inhibition (%) [14C]SA binding” value is listed as 0%.

For `O=C(O)c1cc(Cl)cc(Cl)c1O` [STR11], the “Inhibition (%) Catalase activity” value with catalase came to 100%. In addition, in the test on SABP/catalase, the “Inhibition (%) [14C]SA binding” value is recorded as 85%.

As to `O=C(O)c1cc(Cl)nc(Cl)c1` [STR1], the “Inhibition (%) Catalase activity” value in the test on catalase came out at 98%. Moreover, the “Inhibition (%) [14C]SA binding” value in the test on SABP/catalase was found to be 65%.

On to `O=Cc1cc(Cl)nc(Cl)c1` [analogue #7], for which the “Inhibition of catalase activity in vivo (in words)” value in the test on catalase is “active”. Moreover, the “Inhibition of binding of 14C-labeled SA to SABP/catalase in vitro (in words)” value with SABP/catalase (in vitro) is “much less active”. For the same molecule, the “Induction of PR-1 protein synthesis / PR-1 gene induction (in words)” value with PR1 genes (N.t. cv. Xanthi nc) is reported as “active”.

Take `O=C(O)C=Cc1ccccc1O` [O-coumaric acid]: the “Competition for binding to salicylic acid binding protein” value in test [2] (competitive binding assay) is “unable to compete for binding”. Further, in the test on PR1 genes, the “Induction of PR1 gene expression” value is “did not induce PR1 gene expression”.

Regarding `O=C(O)c1ccccc1` [Benzoic acid], the Biological activity result in test [1] is recorded as “+”. Besides, in test [2], the “Inhibition (%) 2×” value was 14% and the “Inhibition (%) 10×” value is listed as 25%. The “Inhibition of [14C] salicylic acid binding relative to unlabeled salicylic acid” value in test [2] (as well as unlabeled salicylic acid) is “about 20%”. Further, in the test with PR1 genes, the “Induction of PR1 gene expression” value was “able to induce the expression of PR1 genes”. For the same molecule, in the test with PR1 genes (tobacco, FIG. 6A), the “Concentration needed relative to salicylic acid for similar levels of PR1 gene expression” value was “approximately ten-fold”.

`Oc1ccccc1O` [Catechol]: in test [1], the Biological activity result is listed as “-”. Moreover, in test [2], the “Inhibition (%) 2×” value was found to be 0% and the “Inhibition (%) 10×” value turned out to be 1%.

As to `O=C(O)c1ccccc1S` [Thiosalicylic acid], the Biological activity entry in test [1] is “-”. Also, the “% Inhibition of ascorbate peroxidase” value with ascorbate peroxidase is 0 ± 2%. Also, in test [2], the “Inhibition (%) 2×” value was -5% and the “Inhibition (%) 10×” value is on record as 1%.

`OO` [H2 O2, hydrogen peroxide]: the “Induction of PR1 gene expression” value in the test on PR1 genes is given as “induced the expression of PR-1 genes”.

In the case of `C[n+]1ccc(-c2cc[n+](C)cc2)cc1` [paraquat], the “Induction of PR1 gene expression” value in the test on PR1 genes is on record as “induced”.

`O=C(O)c1cc(F)nc(F)c1` [STR3]: the “Inhibition (%) Catalase activity” value in the test on catalase was found to be 48%. Besides, the “Inhibition (%) [14C]SA binding” value in the test on SABP/catalase was found to be 63%.

Turning to `Nc1ccc(C(=O)O)c(O)c1` [4-Aminosalicylic acid], the Biological activity result in test [1] was “-”. In addition, in the test on ascorbate peroxidase, the “% Inhibition of ascorbate peroxidase” value is 9 ± 5%. Further, in test [2], the “Inhibition (%) 2×” value is given as 0% and the “Inhibition (%) 10×” value is -1%.

For the molecule `O=C(O)c1c(O)cc(O)cc1O` [2,4,6-Trihydroxybenzoic acid], the Biological activity entry in test [1] is “-”. In test [2], the “Inhibition (%) 2×” value is listed as -1% and the “Inhibition (%) 10×” value was determined as 3%.

As to `O=C(O)c1cc(Cl)ccc1O` [STR10], the “Inhibition (%) Catalase activity” value in the test with catalase is reported as 100%. Moreover, the “Inhibition (%) [14C]SA binding” value in the test with SABP/catalase was determined as 87%.

Regarding `CC(C)c1cc(C(=O)O)cc(O)n1` [STR6], the “Inhibition (%) Catalase activity” value in the test with catalase came to 15%. For the same molecule, in the test with SABP/catalase, the “Inhibition (%) [14C]SA binding” value is on record as 11%.

As to `O=C(O)c1ccccc1Cl` [2-Chlorobenzoic acid], in test [1], the Biological activity entry is “-”. For the same molecule, in test [2], the “Inhibition (%) 2×” value was determined as 0% and the “Inhibition (%) 10×” value is 2%.

For `Nc1cccc(C(=O)O)c1O` [3-Aminosalicylic acid], the Biological activity entry in test [1] is “-”. Also, in test [2], the “Inhibition (%) 2×” value is 1% and the “Inhibition (%) 10×” value is 5%.

Regarding `O=Cc1cc(Cl)nc(Cl)c1` [STR4], in the test with catalase, the “Inhibition (%) Catalase activity” value worked out at 79%. Further, the “Inhibition (%) [14C]SA binding” value in the test with SABP/catalase came to 25%.

Consider `O=C(O)c1cc(O)nc(O)c1` [STR5], for which the “Inhibition (%) Catalase activity” value in the test with catalase is recorded as 25%. Also, in the test with SABP/catalase, the “Inhibition (%) [14C]SA binding” value worked out at 19%.

As for `O=C(O)c1ccc(O)c(O)c1O` [2,3,4-Trihydroxybenzoic acid], the Biological activity result in test [1] is “-”. Besides, in test [2], the “Inhibition (%) 2×” value is 1% and the “Inhibition (%) 10×” value is given as 2%.

As to `Nc1ccc(O)c(C(=O)O)c1` [5-Aminosalicylic acid], in test [1], the Biological activity result is recorded as “-”. In test [2], the “Inhibition (%) 2×” value came out at 1% and the “Inhibition (%) 10×” value is -2%.
